Values of other authors in patent US20190183792A1, “COMPOSITION AND METHOD FOR TREATING HERPESVIRUS IN MAMMALS” (VELOCE BIOPHARMA, LLC, priority 2016, published 2019).

Tests used:
[1] = system: Human herpes simplex virus
[2] = system: Feline Herpesvirus; settings: research by Nasisse
[3] = system: ocular herpesvirus infection; settings: canine models in vivo
[4] = compared among the antivirals

Row | SMILES | effectiveness against Feline Herpesvirus (rank order) [2] | solubility [4] | further results
1 | Nc1nc2c(ncn2COCCO)c(=O)[nH]1 [Acyclovir] | not effective |  | effectiveness against Human herpes simplex virus [1]: most effective
2 | Nc1ncnc2c1ncn2[C@@H]1O[C@H](CO)[C@@H](O)[C@@H]1O [Adenine Arabinoside] | then Adenine Arabinoside |  | 
3 | Nc1ccn(C[C@@H](CO)OCP(=O)(O)O)c(=O)n1 [Cidofovir] |  |  | local ocular toxicity [3]: local ocular toxicity is significant; viral shedding [3]: decrease viral shedding
4 | O=c1[nH]c(=O)n([C@H]2C[C@H](O)[C@@H](CO)O2)cc1I [Idoxuridine] |  | poorly soluble | 
5 | O=c1[nH]c(=O)n([C@H]2C[C@H](O)[C@@H](CO)O2)cc1C(F)(F)F [Triflurothymidine] | most effective | most soluble | effectiveness [4]: most effective; toxicity [4]: least toxic
